Laboratory results: the supplement of paper PMC11208160

Assay: recombinant UMI read abundance after kanamycin selection (control-corrected) (log10(CPM+1)); higher = more efficient recombination; extreme values may be limits of the assay; sequences stand for … in AGTGCAGAGAAAATCGGCCAGTTTTCTCTGCCTGCAGTCCGCATGCCGTGGGACCCCTTGGGTTCTAACCTGTTGCCTAGATTTATGCAGCGGACTGCCTTTCTCCCAAAGTGATAAACCGG…AGGTTGGTTTCACT; site = the 11-nt donor
Outline: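 Each donor and donor-binding-loop pair was tracked by a 12-nt UMI on a plasmid carrying a promoterless kanamycin gene. With a second plasmid supplying a fixed target and T7-inducible IS621 bridge recombinase, the pool was plated in Escherichia coli on IPTG (0.07 mM) plus kanamycin or unselected. Sequencing of recombinant UMIs across the donor–target junction gave counts expressed as log10(CPM+1) after replicate averaging and control-derived scaling.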
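Note: IS621 bridge recombinase in Escherichia coli cells against a fixed T5 target plasmid.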

| Sequence | recombinant UMI read abundance (log10) |
| --- | --- |
| AGGACTACATGGACCGGTTTTCCCGGTAATCCGTATTTGAA (site AGGACTACTGT) | 0.477 |
| AGGACTACATGGACCGGTTTTCCCGGTAATCCGTATTTGAA (site AGGACTACTTT) | 1.13 |
| AGGACTACATGGACCGGTTTTCCCGGTAATCCGTATTTGCC (site AGGACTACTGA) | 0 |
| AGGACTACATGGACCGGTTTTCCCGGTAATCCGTATTTGCC (site AGGACTACTGC) | 0 |
| AGGACTACATGGACCGGTTTTCCCGGTAATCCGTATTTGCC (site AGGACTACTGG) | 2.23 |
| AGGACTACATGGACCGGTTTTCCCGGTAATCCGTATTTGCC (site AGGACTACTGT) | 0 |
| AGGACTGCATGGACCGGTTTTCCCGGTAATCCGTATTTGAG (site AGGACTGCTCT) | 1.79 |
| AGGAGGACATGGACCGGTTTTCCCGGTAATCCGTATTTGCA (site AGGAAGACTTG) | 2.35 |
| AGGAGGACATGGACCGGTTTTCCCGGTAATCCGTATTTGCA (site AGGACGACTTG) | 0.4 |
| AGGAGGACATGGACCGGTTTTCCCGGTAATCCGTATTTGCA (site AGGAGGACTTG) | 2.56 |
| AGGAGGACATGGACCGGTTTTCCCGGTAATCCGTATTTGCA (site AGGATGACTTG) | 0 |
| AGGAGTACATGGACCGGTTTTCCCGGTAATCCGTATTTGAC (site AGGAATACTGT) | 1.29 |
| AGGAGTACATGGACCGGTTTTCCCGGTAATCCGTATTTGAC (site AGGACTACTGT) | 0.225 |
| AGGAGTACATGGACCGGTTTTCCCGGTAATCCGTATTTGAC (site AGGAGTACTGT) | 2.08 |
| AGGAGTACATGGACCGGTTTTCCCGGTAATCCGTATTTGAC (site AGGATTACTGT) | 0.00638 |
| AGGAGTACATGGACCGGTTTTCCCGGTAATCCGTATTTGTC (site AGGAGTACTGA) | 2.17 |
| AGGAGTCCATGGACCGGTTTTCCCGGTAATCCGTATTTGAA (site AGGAGTCCTTT) | 1.07 |
| AGGATAACATGGACCGGTTTTCCCGGTAATCCGTATTTGGC (site AGGATAACTGC) | 2.73 |
| AGGATGACATGGACCGGTTTTCCCGGTAATCCGTATTTGTA (site AGGAAGACTTG) | 0 |
| AGGATGACATGGACCGGTTTTCCCGGTAATCCGTATTTGTA (site AGGATGACTTA) | 2.6 |
| AGGATGGCATGGACCGGTTTTCCCGGTAATCCGTATTTGGT (site AGGATGGCTAC) | 1.79 |
| AGGATTCCATGGACCGGTTTTCCCGGTAATCCGTATTTGTT (site AGGATTCCTAA) | 0.226 |
| AGGATTCCATGGACCGGTTTTCCCGGTAATCCGTATTTGTT (site CGGAATCCTAA) | 0.0087 |
| AGGCAACCATGGACCGGTTTTCCCGGTAATCCGTATTTGGG (site AGGCAACCTCC) | 0.112 |
| AGGCCGACATGGACCGGTTTTCCCGGTAATCCGTATTTGCA (site AGGAAGACTTG) | 0 |

| Sequence | recombinant UMI read abundance (log10) |
| --- | --- |
| AGGCCGACATGGACCGGTTTTCCCGGTAATCCGTATTTGCA (site AGGCCGACTTG) | 1.81 |
| AGGCCTGCATGGACCGGTTTTCCCGGTAATCCGTATTTGAA (site AGGCCTGCTTT) | 0.996 |
| AGGCTTCCATGGACCGGTTTTCCCGGTAATCCGTATTTGCG (site AGGCTTCCTCG) | 0.745 |
| AGGGAGACATGGACCGGTTTTCCCGGTAATCCGTATTTGCA (site AGGAAGACTTG) | 0.796 |
| AGGGAGACATGGACCGGTTTTCCCGGTAATCCGTATTTGCA (site AGGCAGACTTG) | 0.473 |
| AGGGAGACATGGACCGGTTTTCCCGGTAATCCGTATTTGCA (site AGGGAGACTTG) | 2.5 |
| AGGGAGACATGGACCGGTTTTCCCGGTAATCCGTATTTGCA (site AGGTAGACTTG) | 0.162 |
| AGGGATCCATGGACCGGTTTTCCCGGTAATCCGTATTTGTT (site AGGGATCCTAA) | 0.662 |
| AGGGATCCATGGACCGGTTTTCCCGGTAATCCGTATTTGTT (site CGGAATCCTAA) | 0 |
| AGGGCTACATGGACCGGTTTTCCCGGTAATCCGTATTTGCG (site AGGGCTACTCG) | 1.42 |
| AGGGTGACATGGACCGGTTTTCCCGGTAATCCGTATTTGCA (site AGGAAGACTTG) | 0.666 |
| AGGGTGACATGGACCGGTTTTCCCGGTAATCCGTATTTGCA (site AGGGTGACTTG) | 2.63 |
| AGGTACCCATGGACCGGTTTTCCCGGTAATCCGTATTTGTG (site AGGTACCCTCA) | 0.0796 |
| AGGTACCCATGGACCGGTTTTCCCGGTAATCCGTATTTGTG (site AGGTCCCCTCA) | 0.0158 |
| AGGTACCCATGGACCGGTTTTCCCGGTAATCCGTATTTGTG (site AGGTGCCCTCA) | 0.0127 |
| AGGTACCCATGGACCGGTTTTCCCGGTAATCCGTATTTGTG (site AGGTTCCCTCA) | 0.0248 |
| AGGTACGCATGGACCGGTTTTCCCGGTAATCCGTATTTGAG (site AGGTACGCTCT) | 1.72 |
| AGGTAGACATGGACCGGTTTTCCCGGTAATCCGTATTTGCA (site AGGAAGACTTG) | 1.23 |
| AGGTAGACATGGACCGGTTTTCCCGGTAATCCGTATTTGCA (site AGGCAGACTTG) | 2.47 |
| AGGTAGACATGGACCGGTTTTCCCGGTAATCCGTATTTGCA (site AGGGAGACTTG) | 0.688 |
| AGGTAGACATGGACCGGTTTTCCCGGTAATCCGTATTTGCA (site AGGTAGACTTG) | 2.88 |
| AGGTAGCCATGGACCGGTTTTCCCGGTAATCCGTATTTGCA (site AGGAAGACTTG) | 0 |
| AGGTAGCCATGGACCGGTTTTCCCGGTAATCCGTATTTGCA (site AGGTAGCCTTG) | 0 |
| AGGTAGCCATGGACCGGTTTTCCCGGTAATCCGTATTTGTA (site AGGTAGCCTTA) | 0.215 |
| AGGTAGGCATGGACCGGTTTTCCCGGTAATCCGTATTTGGC (site AAGTAGGCTGC) | 0.588 |

| Sequence | recombinant UMI read abundance (log10) |
| --- | --- |
| AGGTAGGCATGGACCGGTTTTCCCGGTAATCCGTATTTGGC (site ACGTAGGCTGC) | 1.87 |
| AGGTAGGCATGGACCGGTTTTCCCGGTAATCCGTATTTGGC (site AGGTAGGCTGC) | 2.65 |
| AGGTAGGCATGGACCGGTTTTCCCGGTAATCCGTATTTGGC (site ATGTAGGCTGC) | 0.775 |
| AGGTGCGCATGGACCGGTTTTCCCGGTAATCCGTATTTGTA (site AGGTGCGCTTA) | 1.81 |
| AGGTGGACATGGACCGGTTTTCCCGGTAATCCGTATTTGCA (site AGGAAGACTTG) | 1.46 |
| AGGTGGACATGGACCGGTTTTCCCGGTAATCCGTATTTGCA (site AGGTGGACTTG) | 2.73 |
| AGGTGGACATGGACCGGTTTTCCCGGTAATCCGTATTTGTA (site AGGTGGACTTA) | 2.2 |
| AGGTGGCCATGGACCGGTTTTCCCGGTAATCCGTATTTGCC (site AGGTGGCCTGG) | 0 |
| AGGTTCACATGGACCGGTTTTCCCGGTAATCCGTATTTGCC (site AGGTTCACTGG) | 2.11 |
| AGGTTCCCATGGACCGGTTTTCCCGGTAATCCGTATTTGGG (site AGGTTCCCTCA) | 0.0189 |
| AGGTTCCCATGGACCGGTTTTCCCGGTAATCCGTATTTGGG (site AGGTTCCCTCC) | 0.0153 |
| AGGTTCCCATGGACCGGTTTTCCCGGTAATCCGTATTTGGG (site AGGTTCCCTCG) | 0.0155 |
| AGGTTCCCATGGACCGGTTTTCCCGGTAATCCGTATTTGGG (site AGGTTCCCTCT) | 0.0453 |
| AGTAAAGCATGGACCGGTTTTCCCGGTAATCCGTATTTGCA (site AGTAAAGCTTG) | 1.97 |
| AGTAACGCATGGACCGGTTTTCCCGGTAATCCGTATTTGGT (site AGTAACGCTAC) | 1.7 |
| AGTAAGACATGGACCGGTTTTCCCGGTAATCCGTATTTGAA (site AGGAAGACTTG) | 0 |
| AGTAAGACATGGACCGGTTTTCCCGGTAATCCGTATTTGAA (site AGTAAGACTTT) | 1.27 |
| AGTAAGACATGGACCGGTTTTCCCGGTAATCCGTATTTGTC (site AGTAAGACTGA) | 1.36 |
| AGTAAGCCATGGACCGGTTTTCCCGGTAATCCGTATTTGCA (site AGGAAGACTTG) | 0 |
| AGTAAGCCATGGACCGGTTTTCCCGGTAATCCGTATTTGCA (site AGTAAGCCTTG) | 0.539 |
| AGTAAGGCATGGACCGGTTTTCCCGGTAATCCGTATTTGCT (site AGAAAGGCTAG) | 1.39 |
| AGTAAGGCATGGACCGGTTTTCCCGGTAATCCGTATTTGCT (site AGCAAGGCTAG) | 1.21 |
| AGTAAGGCATGGACCGGTTTTCCCGGTAATCCGTATTTGCT (site AGGAAGGCTAG) | 0.32 |
| AGTAAGGCATGGACCGGTTTTCCCGGTAATCCGTATTTGCT (site AGTAAGGCTAG) | 2.75 |
| AGTAAGTCATGGACCGGTTTTCCCGGTAATCCGTATTTGAA (site AGTAAGTCTTT) | 2.1 |
